Reference: BindingDB's records for patent US11396516 (The General Hospital Corporation, 2022)

Target: T1, Cytochrome P450 1A2 (Homo sapiens, UniProt P05177)
T1 sequence (P05177 whole entry): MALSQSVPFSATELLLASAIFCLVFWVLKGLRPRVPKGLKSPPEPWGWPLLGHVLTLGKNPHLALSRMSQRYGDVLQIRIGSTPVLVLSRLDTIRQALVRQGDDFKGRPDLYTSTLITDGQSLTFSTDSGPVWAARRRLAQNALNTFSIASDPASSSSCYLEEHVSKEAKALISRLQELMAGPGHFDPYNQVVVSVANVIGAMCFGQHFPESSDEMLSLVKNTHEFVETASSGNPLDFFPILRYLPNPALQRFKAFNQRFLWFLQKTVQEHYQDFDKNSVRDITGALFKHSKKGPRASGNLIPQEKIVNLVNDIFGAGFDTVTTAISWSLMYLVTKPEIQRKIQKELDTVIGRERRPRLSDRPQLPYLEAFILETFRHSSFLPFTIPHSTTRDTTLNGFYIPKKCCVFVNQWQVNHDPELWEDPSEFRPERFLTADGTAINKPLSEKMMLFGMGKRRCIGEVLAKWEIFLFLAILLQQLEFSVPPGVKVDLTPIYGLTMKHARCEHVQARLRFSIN
Assay: Inhibition of CYP Enzyme Activity In Vitro
Description: The ability of the tested compounds to inhibit a panel of CYP enzymes in vitro was assessed using a series of human liver microsome assays. Half-maximal inhibitory concentration (IC50) was calculated for compounds demonstrating mean inhibition greater than 50% compared to a reference inhibitor.

IC50: 240 nM
Compound: COc1c2ccoc2cc2oc(C)cc(=O)c12 [US11396516, Example visnagin]
